The conditions of the data set: Crystal; DSC.

The values that follow come from the NIST ThermoML archive (doi:10.1021/acs.jced.9b00286).

Molecules are shown by their SMILES. Numbers after ± are expanded uncertainties.

As to `OCc1ccc(O[C@@H]2O[C@H](CO)[C@@H](O)[C@H](O)[C@H]2O)cc1` [gastrodin], the Triple point temperature turned out to be 429.75 ± 1.2 K.
